Patent publication US20100010025A1, “Pyrimidine Derivatives” (Norvartis AG, priority 2006, published 2010)

Columns and labels:
JAK-2 = biological target: T1, JAK-2 (Homo sapiens, UniProt O60674); assay: JAK kinase assay (JAK-2), time-resolved fluorescence energy transfer or radiometric filter-binding/flash plate; assay type: biochemical; settings: GST fusion of JAK-2 kinase domain (JH-1)
T1 construct: contain the kinase domain (JH-1 domain) of the full length proteins and are used as GST fusion proteins
Method: (§1) JAK-2 or JAK-3 enzymatic activity is determined using a time-resolved fluorescence energy transfer technology. The phosphorylation of a synthetic biotinylated peptide substrate (GGEEEYFELVKKKK) by either JAK-2 or JAK-3 in the presence of ATP is quantified using Europium labeled anti phosphotyrosine antibody and Streptavidin-Allophycocyanin Both JAK-2 and JAK-3 enzymes used in these assays contain the kinase domain (JH-1 domain) of the full length proteins and are used as GST fusion proteins.
(§2) Inhibitors are dissolved in DMSO. Dilutions are prepared in 90% DMSO followed by additional dilutions steps as required to perform a 8-point concentration-response.
(§3) The reaction mix consists of 5 μL of diluted compound, 10 μl of assay buffer and 5 μl of enzyme dilution. After incubation for 60 minutes at room temperature the reaction is stopped by the addition of EDTA. For detection of the product anti-phosphotyrosine antibody and Streptavidin-APC are added and after 60 minutes the samples are measured in an EnVision 2102 Multilabel Reader with excitation wavelength of 320 nm and emission at 665 nm. […] Membranes are counted after drying at ambient temperature, mounting in Packard TopCount 96-well frame, and addition of 10 μl/well of Microscint. The plates are eventually sealed and counted in a microplate scintillation counter (TopCount NXT, TopCount NXT HTS, PerkinElmer, Brussels, Belgium).

JAK-3 = biological target: T2, JAK-3 (Homo sapiens, UniProt P52333); assay: JAK kinase assay (JAK-3), time-resolved fluorescence energy transfer or radiometric filter-binding/flash plate; assay type: biochemical; settings: GST fusion of JAK-3 kinase domain (JH-1)
T2 construct: contain the kinase domain (JH-1 domain) of the full length proteins and are used as GST fusion proteins
Method: as §1, §2, §3

T1 sequence (O60674 849-1124 limits assumed, species assumed): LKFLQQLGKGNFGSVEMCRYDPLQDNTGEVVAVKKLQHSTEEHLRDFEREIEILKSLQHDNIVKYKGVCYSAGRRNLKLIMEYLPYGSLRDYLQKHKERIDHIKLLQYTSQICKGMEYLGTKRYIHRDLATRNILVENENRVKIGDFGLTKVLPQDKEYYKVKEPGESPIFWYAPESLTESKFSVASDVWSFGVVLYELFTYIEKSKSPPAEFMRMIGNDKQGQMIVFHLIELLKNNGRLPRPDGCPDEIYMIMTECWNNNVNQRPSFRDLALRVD
T2 sequence (P52333 822-1111 limits assumed, species assumed): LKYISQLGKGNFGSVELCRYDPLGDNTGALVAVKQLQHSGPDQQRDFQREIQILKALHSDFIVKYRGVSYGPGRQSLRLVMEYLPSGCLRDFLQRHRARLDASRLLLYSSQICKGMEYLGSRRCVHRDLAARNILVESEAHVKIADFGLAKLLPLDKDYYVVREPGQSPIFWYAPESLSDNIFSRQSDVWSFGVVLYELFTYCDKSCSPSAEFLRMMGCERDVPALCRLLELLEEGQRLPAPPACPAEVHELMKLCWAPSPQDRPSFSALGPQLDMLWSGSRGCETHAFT

IC50 (JAK-2) | IC50 (JAK-3) | Compound
179 nM |  | CNS(=O)(=O)c1ccccc1Nc1nc(Nc2cc(OC)ccc2F)ncc1C(N)=O [Example 5, 2-(2-Fluoro-5-methoxy-phenylamino)-4-(2-methylsulfamoyl-phenylamino)-pyrimidine-5-carboxylic acid amide]
 | 26 nM | COc1ccc(F)c(Nc2ncc(C(N)=O)c(Nc3ccccc3N(C)S(C)(=O)=O)n2)c1 [Example 6, 2-(2-Fluoro-5-methoxy-phenylamino)-4-[2-(methanesulfonyl-methyl-amino)-phenylamino]-pyrimidine-5-carboxylic acid amide]
